Data: publication PMC7395068, “The evolution of strategies to minimise the risk of human drug-induced liver injury (DILI) in drug discovery and development” (Archives of Toxicology, 2020)
Where two headings read alike, the source gives them in different places.

Columns and labels:
[1] = system: hLiMTs; assay: Combined HCI (HCS) and cellular ATP 3D assay in hLiMTs; conditions: for AC50 / minimal effective concentration: Homo sapiens
[2] = system: PHH; conditions: In vitro Assay; ref Albrecht 2019; cited from earlier work
[3] = system: PHH; conditions: cited from earlier work
[4] = cited from earlier work
[5] = plasma free fraction; cited from earlier work
[6] = system: PHH spheroids; conditions: cited from earlier work
[7] = system: HepG2 cells; conditions: cited from earlier work
[8] = system: hLiMTs; conditions: cited from earlier work
[9] = read-out: Human plasma Cmax; total plasma Cmax.tot, median of 9 literature references; cited from earlier work
[10] = system: THLE or HepG2 cells, isolated mitochondria, BSEP; conditions: cited from earlier work
[11] = system: HepG2 cells; conditions: cited from earlier work; remark: listed apart in the source
[12] = Plasma free fraction (fu) and unbound Cmax (Cmax,u); assay type: in vitro ADME, human; conditions: unbound plasma Cmax
[13] = system: THLE-Null and THLE-3A4 cells; conditions: In vitro Assay; ref Gustafsson 2014; cited from earlier work
[14] = system: isolated mouse liver mitochondria; conditions: In vitro Assay; ref Porceddu 2012; cited from earlier work
[15] = system: HepaRG spheroids; assay: Combined HCI (HCS) and cellular ATP 3D assay in HepaRG spheroids; conditions: for AC50 / minimal effective concentration: Homo sapiens
[16] = cited from earlier work; remark: listed apart in the source
[17] = ref Chen 2011; cited from earlier work
[18] = system: HepG2 C3A spheroid, BSEP, Glu/Gal in HepG2 cells, bioactivation; conditions: cited from earlier work
[19] = system: rBsep; conditions: In vitro Assay; ref Dawson 2012; cited from earlier work
[20] = system: HepG2; parameters: method as in Albrecht 2019; conditions: In vitro Assay; ref Albrecht 2019; cited from earlier work
[21] = Microtissue model structural based (HCI), combined HCS and ATP, MEC < 25 × Cmax.tot cut-off
[22] = In vitro Assay, ref Proctor 2017
[23] = In vitro Assay, ref Persson 2013
[24] = Modeled in vitro assays (cytotoxicity, mitochondrial dysfunction, BSEP), ref Aleo et al. 2019

O=C1CN(/N=C/c2ccc([N+](=O)[O-])o2)C(=O)N1 [nitrofurantoin, reference compound]
AC50 ([1]; read-out: ATP endpoint AC50): 11.7 µM
minimal effective concentration ([1]; read-out: ATP endpoint MEC): 3.21 µM
AC50 ([1]; read-out: HCS endpoint AC50): 73.6 µM
minimal effective concentration ([1]; read-out: HCS endpoint MEC): 19.4 µM
DILI prediction hLiMTs (HCS-MEC) [1, 21]: +VE (MEC < 25 × Cmax.tot cut-off)
hLiMTs <25x Avg Cmax ATP ([1]; hLiMTs, ATP endpoint, cut-off <25x Avg Cmax): +ve
hLiMTs <100x Avg Cmaxu ATP ([1]; hLiMTs, ATP endpoint, cut-off <100x Avg Cmaxu): +ve (<100x Avg Cmaxu)
hLiMTs <25x Avg Cmax HCS ([1]; hLiMTs, HCS endpoints, cut-off <25x Avg Cmax): +ve
hLiMTs <100x Avg Cmaxu HCS ([1]; hLiMTs, HCS endpoints, cut-off <100x Avg Cmaxu): +ve (<100x Avg Cmaxu)
hLiMTs <25x Avg Cmax All ([1]; hLiMTs, all endpoints (ATP and HCS), cut-off <25x Avg Cmax): +ve
hLiMTs Cmax max All ([1]; hLiMTs, all endpoints, Cmax max used): +ve
hLiMTs Cmax min All ([1]; hLiMTs, all endpoints, Cmax min used): +ve
hLiMTs <10 uM All ([1]; hLiMTs, all endpoints, cut-off <10 uM): +ve (<10 uM)
hLiMTs <100x Avg Cmaxu All ([1]; hLiMTs, all endpoints, cut-off <100x Avg Cmaxu): +ve (<100x Avg Cmaxu)
Cytotoxicity PHH 48 hrs [2]: +VE
PHH/100uM, Proctor (2017) ([3]; 2D PHH, ATP, IC50 threshold 100 µM, ref Proctor et al. 2017): +VE (IC50 threshold of 100 µM)
PHH ATP <100uM [3, 22]: +VE (IC50 threshold of 100 µM)
DILI severity category (Chen et al. [2016]) ([4]; LTKB DILIrank category, ref Chen et al. 2016): Most
DILI severity category (Chen 2016) ([4]; human DILI classification, LTKB DILIrank, ref Chen et al. 2016): Most
DILI severity category ([4]; human DILI severity, ref Chen et al.): Most
DILI +VE (5-8), DILI -VE (-4) ([4]; ref Chen 2016): +VE
DILI severity category ([4]; ref Chen 2016): vMost-DILI-Concern
fu [5]: 0.310
hLiMTs ATP <20 x Cmax ([6]; In vitro Assay, ref Vorrink 2018): +VE (IC20 < 20 × Cmax.tot cut-off)
DILI in vitro assay prediction, Vorrink (2018) ([6]; PHH spheroids, ATP, 14 days, IC20 < 20 × Cmax.tot, ref Vorrink et al. 2018): +VE (IC20 < 20 × Cmax.tot cut-off)
Cluser analysis [7, 23]: -VE
Structural based (HCI) [7, 23]: +VE
DILI in vitro assay prediction, Persson (2013) ([7]; Structural based (HCI), HepG2, ref Persson et al. 2013): -VE
hLiMTs ATP <100uM [8, 22]: +VE (IC50 threshold of 100 µM)
hLiMTs/100uM, Proctor (2017) ([8]; hLiMTs, ATP, IC50 threshold 100 µM, ref Proctor et al. 2017): +VE (IC50 threshold of 100 µM)
Cmax [9]: 21 µM
Partition Hybrid HRM Score ([10]; In vitro Assay, ref Aleo 2019): +VE
Ro2 Hybrid HRM Score ([10]; In vitro Assay, ref Aleo 2019): +VE
Partition Hybrid HRM Score ≥4, Aleo (2019) [10, 24]: +VE (Partition Hybrid HRM Score ≥4)
Partition Hybrid HRM Score ≥8, Aleo (2019) [10, 24]: -VE
Rule of Two hybrid HRM Score ≥3, Aleo (2019) [10, 24]: +VE (Rule of Two hybrid HRM Score ≥3)
Rule of Two hybrid HRM Score ≥8, Aleo (2019) [10, 24]: -VE
Structural based (HCI) ([11]; In vitro Assay, ref O'Brien 2006): +VE
DILI in vitro assay prediction, O'Brien (2006) ([11]; Structural based (HCI), HepG2, ref O'Brien et al. 2006): +VE (lowest HCI endpoint IC50 (or in the absence of dose–response < 100 µM) < 30 × total human plasma exposure levels (Cmax.tot))
Human plasma Cmax,u [12]: 6.508 µM
THLE-Null [13]: -VE
in vitro data EC2<=1x Cmax [14]: +VE
in vitro data EC20<=2uM [14]: -VE
HepaRG <25x Avg Cmax ATP ([15]; HepaRG, ATP endpoint, cut-off <25x Avg Cmax): +ve
HepaRG <100x Avg Cmaxu ATP ([15]; HepaRG, ATP endpoint, cut-off <100x Avg Cmaxu): +ve (<100x Avg Cmaxu)
HepaRG <25x Avg Cmax HCS ([15]; HepaRG, HCS endpoints, cut-off <25x Avg Cmax): +ve
HepaRG <100x Avg Cmaxu HCS ([15]; HepaRG, HCS endpoints, cut-off <100x Avg Cmaxu): +ve (<100x Avg Cmaxu)
HepaRG <25x Avg Cmax All ([15]; HepaRG, all endpoints (ATP and HCS), cut-off <25x Avg Cmax): +ve
HepaRG Cmax max All ([15]; HepaRG, all endpoints, Cmax max used): +ve
HepaRG Cmax min All ([15]; HepaRG, all endpoints, Cmax min used): +ve
HepaRG <10 uM All ([15]; HepaRG, all endpoints, cut-off <10 uM): +ve (<10 uM)
HepaRG <100x Avg Cmaxu All ([15]; HepaRG, all endpoints, cut-off <100x Avg Cmaxu): +ve (<100x Avg Cmaxu)
AC50 ([15]; HepaRG, read-out: ATP endpoint AC50): 11.6 µM
minimal effective concentration ([15]; HepaRG, read-out: ATP endpoint MEC): 9.27 µM
AC50 ([15]; HepaRG, read-out: HCS endpoint AC50): 17.5 µM
minimal effective concentration ([15]; HepaRG, read-out: HCS endpoint MEC): 5.59 µM
DILI prediction HepaRG spheroids (HCS-MEC) [15, 21]: +VE (MEC < 25 × Cmax.tot cut-off)
Assigned DILI category ([16]; Chen et al. 2016 or literature alignment, ref Chen et al. 2016): 3
In vivo DILI ([16]; […]): +VE
In vivo DILI ([16]; ref Albrecht 2019): +VE
In vivo DILI ([16]; ref Aleo 2019): +VE
In vivo DILI ([16]; ref Dawson 2012): +VE
In vivo DILI ([16]; ref Garside 2014): +VE
In vivo DILI ([16]; ref Gustafsson 2014): +VE
In vivo DILI ([16]; ref O'Brien 2006): +VE
In vivo DILI ([16]; ref Persson 2013): +VE
In vivo DILI ([16]; ref Porceddu 2012): +VE
In vivo DILI ([16]; ref Proctor 2017): +VE
In vivo DILI ([16]; ref Vorrink 2018): +VE
In vivo DILI ([16]; ref Williams 2019): +VE
DILI Score (FDA) (1-8) [17]: 8
Bayesian Machine Learning DILI prediction, Williams (2019) ([18]; Bayesian modeling, ref Williams et al. 2019): +VE
Bayesian Machine Learning ([18]; In vitro Assay, ref Williams 2019): +VE
Inhibition of rBsep cutoff<1& cmax u>.2 [19]: -VE
Inhibition of rBsep cutoff<3 [19]: -VE
Cytotoxicity HepG2 48 hrs [20]: +VE
